The values below are quoted from earlier work in patent publication US9707259B2, “Magnetic diffusional patch” (METUAS MEDIKAL SAGLIK HIZ-METLERI DANISMANLIK IHRACAT …, priority 2011, dated 2017).

The test system of data set [1] is thromboxane and leukotriene B4 synthesis.
Data set [2] relates to activated human monocytes.
[3] abbreviates: experimental animals, rheumatoid arthritis.

For `CC1=CC(=O)C(C(C)C)=CC1=O` [thymoquinone], in the data set on rheumatoid arthritis (setting [3]), the “levels of pro-inflammation cytokines TNF-alpha and interleukin (IL)-1beta” value was “reduction”; the “severity of the disease” value is listed as “decreases”. The “induced arthritis with the aid of collagen” value in the data set with rheumatoid arthritis (experimental studies) is recorded as “able to suppress”. Moreover, in data set [1], the “synthesis of thromboxane and leukotriene B4 from eicosanoids” value is “inhibits”. For the same molecule, in the data set with lipooxygenase enzymes, the “effect on lipooxygenase enzyme” value is reported as “blocks”. Also, the “effect on cyclooxygenase (COX) enzyme” value with cyclooxygenase (COX) was “blocks”.

Consider `CC1=CCC(O)(C(C)C)CC1` (stereo not shown) [4-terpineol], for which the inflammation mediators result in data set [2] is recorded as “suppress”.
